Measurements taken from ChEMBL document CHEMBL5150008, “Fragment-Guided Discovery of Pyrazole Carboxylic Acid Inhibitors of the Kelch-like ECH-Associated Protein 1: Nuclear Factor Erythroid 2 Related Factor 2 (KEAP1:NRF2) Protein-Protein Interaction” (J Med Chem, 2021).

Biological target: T1, Keap1/Nrf2 (Homo sapiens, UniProt Q16236+Q14145)
Experiment: Inhibition of 5'-TAMRA tagged NRF2 (unknown origin)/human recombinant N-terminal Avi tagged KEAP-1 (321 to 609 residues) expressed in Baculovirus system infected in Sf9 cells protein-protein interaction at 0.03 uM by fluorescence polarisation assay relative to control
Settings: not given

Compound | inhibition [%]
CCCC1CCCCN1C(=O)c1cccc(-c2cccc(-n3ncc(C(=O)O)c3C3CC3c3ccccn3)c2)c1 (mixture of isomers) | 42
CN(C)C(=O)c1cccc(-c2cccc(-n3ncc(C(=O)O)c3C3CC3c3cn(C)nn3)c2)c1 (racemic) | 53
CCCC1COCCN1C(=O)c1cccc(-c2cccc(-n3ncc(C(=O)O)c3C3CC3)c2)c1F (stereo not given) | 60

Further lines, results first:

inhibition [%] | Compound
46 | O=C(O)c1cnn(-c2cccc(-c3cccc(C(=O)N(CC4CC4)CC4CC4)c3F)c2)c1C1CC1
64 | CCCCC1CCCN1C(=O)C1CCCC(c2cccc(-n3ncc(C(=O)O)c3C3CC3)c2)C1 (mixture of isomers)

Tested on: not listed separately
Experiment: Permeability in artificial phospholipid membrane by AMPA based HPLC/UV analysis
Assay type: ADME, cell membranes
Settings: not told; read-out: permeability

Compound | Papp [×10⁻⁶ cm/s]
CCCC1CCCCN1C(=O)c1cccc(-c2cccc(-n3ncc(C(=O)O)c3C3CC3c3cn(C)nn3)c2)c1 (mixture of isomers) | 3.7
CCCC1CCCCN1C(=O)c1cccc(-c2cccc(-n3ncc(C(=O)O)c3C3CC3c3ccccn3)c2)c1 (mixture of isomers) | 4
CCC[C@@H]1CCCCN1C(=O)c1cccc(-c2cccc(-n3ncc(C(=O)O)c3[C@H]3C[C@@H]3c3cn(C)nn3)c2)c1 | 1.6
CN(C)C(=O)c1cccc(-c2cccc(-n3ncc(C(=O)O)c3C3CC3c3cn(C)nn3)c2)c1 (racemic) | < 0.3
CCCC1COCCN1C(=O)c1cccc(-c2cccc(-n3ncc(C(=O)O)c3C3CC3)c2)c1F (stereo not given) | 1.1
CCCC1CCCCN1C(=O)c1cccc(-c2cccc(-n3ncc(C(=O)O)c3C3CC3c3cccnc3)c2)c1 (mixture of isomers) | 13
O=C(O)c1cnn(-c2cccc(-c3cccc(C(=O)N4CCCC5(CCCC5)C4)c3F)c2)c1C1CC1 | 1.2
CCCC1CCCCN1C(=O)c1cccc(-c2cccc(-n3ncc(C(=O)O)c3C3CC3c3cccnn3)c2)c1 (mixture of isomers) | 1.7
CCC[C@@H]1CCCCN1C(=O)c1cccc(-c2cccc(-n3ncc(C(=O)O)c3[C@@H]3C[C@H]3c3cn(C)nn3)c2)c1 | 1.7
O=C(O)c1cnn(-c2cccc(-c3cccc(C(=O)N4CCCCC4)c3F)c2)c1C1CC1 | < 0.3

Other lines, results leading:

Papp [×10⁻⁶ cm/s] | Compound
6.3 | CCC[C@H]1CCCCN1C(=O)c1cccc(-c2cccc(-n3ncc(C(=O)O)c3C3CC3)c2)c1F
1.6 | O=C(O)c1cnn(-c2cccc(-c3cccc(C(=O)N(CC4CC4)CC4CC4)c3F)c2)c1C1CC1
0.3 | CN(CC1CC1)C(=O)c1cccc(-c2cccc(-n3ncc(C(=O)O)c3C3CC3)c2)c1F
< 0.3 | CN(C)C(=O)c1cccc(-c2cccc(-n3ncc(C(=O)O)c3C3CC3)c2)c1F
1.6 | CCCC[C@@H]1CCCN1C(=O)[C@H]1CCC[C@@H](c2cccc(-n3ncc(C(=O)O)c3C3CC3)c2)C1
< 0.3 | CN(C)C(=O)c1cccc(-c2cccc(-n3ncc(C(=O)O)c3C3CC3)c2)c1
1.1 | CCCC1CCCCN1C(=O)C1CCCC(c2cccc(-n3ncc(C(=O)O)c3C3CC3)c2)C1 (mixture of isomers)
2.7 | CCCCC1CCCN1C(=O)C1CCCC(c2cccc(-n3ncc(C(=O)O)c3C3CC3)c2)C1 (mixture of isomers)
2.7 | CCC[C@@H]1CCCCN1C(=O)c1cccc(-c2cccc(-n3ncc(C(=O)O)c3C3CC3)c2)c1F
< 0.3 | CN(C)C(=O)[C@H]1CCC[C@@H](c2cccc(-n3ncc(C(=O)O)c3C3CC3)c2)C1 (racemic)
< 0.3 | O=C(O)c1cnn(-c2cccc([C@@H]3CCC[C@H](C(=O)N4CCCCC4)C3)c2)c1C1CC1 (racemic)

Biological target: T1, Keap1/Nrf2
Experiment: Inhibition of 5'-TAMRA tagged NRF2 (unknown origin)/human recombinant N-terminal Avi tagged KEAP-1 (321 to 609 residues) expressed in Baculovirus system infected in Sf9 cells protein-protein interaction at 0.015 uM by fluorescence polarisation assay relative to control
Settings: not given
Target sequence in this assay (Q14145 whole entry, looked up, the tested form may be a part): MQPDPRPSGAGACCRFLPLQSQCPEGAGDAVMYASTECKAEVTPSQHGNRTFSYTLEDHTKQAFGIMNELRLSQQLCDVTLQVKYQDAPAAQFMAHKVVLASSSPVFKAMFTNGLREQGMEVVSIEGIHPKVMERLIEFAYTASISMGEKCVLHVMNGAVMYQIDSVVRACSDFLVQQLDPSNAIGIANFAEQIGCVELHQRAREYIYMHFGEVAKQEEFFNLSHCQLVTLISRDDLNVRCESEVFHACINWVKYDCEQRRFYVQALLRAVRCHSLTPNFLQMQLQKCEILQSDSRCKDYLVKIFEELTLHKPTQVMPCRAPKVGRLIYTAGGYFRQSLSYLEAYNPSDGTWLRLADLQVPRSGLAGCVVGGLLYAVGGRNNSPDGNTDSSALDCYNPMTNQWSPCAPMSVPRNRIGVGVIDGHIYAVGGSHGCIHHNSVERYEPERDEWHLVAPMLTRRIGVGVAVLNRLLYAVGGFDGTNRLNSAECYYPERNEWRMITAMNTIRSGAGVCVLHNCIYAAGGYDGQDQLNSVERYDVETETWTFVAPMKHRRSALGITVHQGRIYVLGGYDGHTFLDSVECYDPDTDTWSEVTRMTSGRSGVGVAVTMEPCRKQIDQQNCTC
Target sequence in this assay (Q16236 whole entry, looked up, the tested form may be a part): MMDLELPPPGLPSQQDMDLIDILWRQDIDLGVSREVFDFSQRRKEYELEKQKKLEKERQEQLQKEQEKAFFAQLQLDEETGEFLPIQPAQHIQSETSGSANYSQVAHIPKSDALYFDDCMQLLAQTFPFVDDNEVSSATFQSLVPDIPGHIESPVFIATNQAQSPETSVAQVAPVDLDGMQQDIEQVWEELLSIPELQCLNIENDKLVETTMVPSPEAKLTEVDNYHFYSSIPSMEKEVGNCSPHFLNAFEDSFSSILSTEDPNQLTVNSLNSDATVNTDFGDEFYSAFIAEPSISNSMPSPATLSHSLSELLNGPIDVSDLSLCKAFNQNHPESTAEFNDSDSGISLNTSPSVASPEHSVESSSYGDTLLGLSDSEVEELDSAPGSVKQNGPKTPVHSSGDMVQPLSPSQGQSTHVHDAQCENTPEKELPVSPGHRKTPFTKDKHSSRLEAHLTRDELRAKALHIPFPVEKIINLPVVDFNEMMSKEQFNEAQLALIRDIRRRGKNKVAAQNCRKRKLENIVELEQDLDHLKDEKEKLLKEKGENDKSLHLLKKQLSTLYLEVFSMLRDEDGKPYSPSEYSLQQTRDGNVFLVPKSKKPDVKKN

Compound | inhibition [%]
CCCC1CCCCN1C(=O)c1cccc(-c2cccc(-n3ncc(C(=O)O)c3C3CC3c3cn(C)nn3)c2)c1 (mixture of isomers) | 84
CCC[C@@H]1CCCCN1C(=O)c1cccc(-c2cccc(-n3ncc(C(=O)O)c3[C@H]3C[C@@H]3c3cn(C)nn3)c2)c1 | 98
O=C(O)c1cnn(-c2cccc(-c3cccc(C(=O)N4CCCC5(CCCC5)C4)c3F)c2)c1C1CC1 | 50
CCCC1CCCCN1C(=O)c1cccc(-c2cccc(-n3ncc(C(=O)O)c3C3CC3c3cccnn3)c2)c1 (mixture of isomers) | 50

The remaining lines, values ahead:

inhibition [%] | Compound
81 | CCCC[C@@H]1CCCN1C(=O)[C@H]1CCC[C@@H](c2cccc(-n3ncc(C(=O)O)c3C3CC3)c2)C1
52 | CCC[C@@H]1CCCCN1C(=O)c1cccc(-c2cccc(-n3ncc(C(=O)O)c3C3CC3)c2)c1F

Biological target: Keap1/Nrf2 (Homo sapiens, UniProt Q14145)
Experiment: (§1) Inhibition of 5'-TAMRA tagged NRF2 (unknown origin)/human recombinant N-terminal Avi tagged KEAP-1 (321 to 609 residues) expressed in Baculovirus system infected in Sf9 cells protein-protein interaction by fluorescence polarisation assay
Settings: read-out: IC50

Keap1/Nrf2 (Homo sapiens, UniProt Q14145), sequence (Q16236 whole entry, the tested form may be a part): as the sequence (Q16236 whole entry, looked up, the tested form may be a part) above
Keap1/Nrf2 (Homo sapiens, UniProt Q14145), sequence (Q14145 whole entry, the tested form may be a part): as the sequence (Q14145 whole entry, looked up, the tested form may be a part) above

Compound | IC50 [µM]
O=C(O)c1cnn(-c2ccccn2)c1C(F)(F)F | > 1000
O=C(O)c1cnn(-c2cccc(NS(=O)(=O)c3ccccc3)c2)c1C(F)(F)F | 4.6
CN(C)C(=O)c1cccc(-c2cccc(-n3ncc(C(=O)O)c3C3CC3c3cn(C)nn3)c2)c1 (racemic) | 0.041
CN(C)C(=O)c1cccc(-c2cccc(-n3ncc(C(=O)O)c3C(F)(F)F)c2)c1 | 0.48
CC(=O)N1CCC(c2c(C(=O)O)cnn2-c2cccc(-c3cccc(C(=O)N(C)C)c3)c2)CC1 | 3.5
CN(C)C(=O)c1cccc(-c2cccc(-n3ncc(C(=O)O)c3-c3cccnc3)c2)c1 | 2
CN(C)C(=O)c1cncc(-c2cccc(-n3ncc(C(=O)O)c3C(F)(F)F)c2)c1 | 3.7
CCCC1CCCCN1C(=O)c1cccc(-c2cccc(-n3ncc(C(=O)O)c3C3CC3c3cccnc3)c2)c1 (mixture of isomers) | 0.221
CN(C)C(=O)c1cccc(-c2cccc(-n3ncc(C(=O)O)c3C(C)(C)C)n2)c1 | 10
O=C(O)c1cnn(-c2cccc(-c3cccc(CNS(=O)(=O)c4ccccc4)c3)c2)c1C(F)(F)F | 45
O=C(O)c1cnn(-c2ccccc2)c1C(F)(F)F | > 300
CN(C)C(=O)c1ccnc(-c2cccc(-n3ncc(C(=O)O)c3C(F)(F)F)c2)c1 | 7.5
CC(C)Oc1cccc(-c2cccc(-n3ncc(C(=O)O)c3C(F)(F)F)n2)c1 | 8.5
CN(C)C(=O)c1cccc(-c2cccc(-n3ncc(C(=O)O)c3C(F)(F)F)n2)c1 | 1
O=C(O)c1cnn(-c2cccc(-c3cccc(C(=O)N4CCCCC4)c3F)c2)c1C1CC1 | 0.12

The next lines start with the values.

IC50 [µM] | Compound
0.06 | CCC[C@H]1CCCCN1C(=O)c1cccc(-c2cccc(-n3ncc(C(=O)O)c3C3CC3)c2)c1F
> 10 | CN(C)C(=O)c1cccc(-c2cccc(-n3ncc(C(=O)O)c3C3CC3)c2)c1F
0.37 | CN(C)C(=O)c1cccc(-c2cccc(-n3ncc(C(=O)O)c3C3CC3)c2)c1
0.23 | CCCC1CCCCN1C(=O)C1CCCC(c2cccc(-n3ncc(C(=O)O)c3C3CC3)c2)C1 (mixture of isomers)
1.8 | CN(C)C(=O)c1cccc(-c2cccc(-n3ncc(C(=O)O)c3C3CCCCC3)c2)c1
1 | CN(C)C(=O)c1cccc(-c2cccc(-n3ncc(C(=O)O)c3C3CCCC3)c2)c1
0.24 | CN(C)C(=O)[C@H]1CCC[C@@H](c2cccc(-n3ncc(C(=O)O)c3C3CC3)c2)C1 (racemic)
0.3 | O=C(O)c1cnn(-c2cccc([C@@H]3CCC[C@H](C(=O)N4CCCCC4)C3)c2)c1C1CC1 (racemic)

Same assay, conditions: read-out: pIC50 (converted)

Compound | IC50 [µM]
CN(C)C(=O)c1cccc(-c2cccc(-n3ncc(C(=O)O)c3C3CC3c3cn(C)nn3)c2)c1 (racemic) | < 1
O=C(O)c1cnn(-c2cccc(-c3cccc(C(=O)N4CCCCC4)c3F)c2)c1C1CC1 | < 1

Results, then the molecule that gave them:

IC50 [µM] | Compound
< 1 | CN(CC1CC1)C(=O)c1cccc(-c2cccc(-n3ncc(C(=O)O)c3C3CC3)c2)c1F
< 1 | CN(C)C(=O)c1cccc(-c2cccc(-n3ncc(C(=O)O)c3C3CC3)c2)c1F
< 1 | CN(C)C(=O)c1cccc(-c2cccc(-n3ncc(C(=O)O)c3C3CC3)c2)c1
< 1 | CN(C)C(=O)[C@H]1CCC[C@@H](c2cccc(-n3ncc(C(=O)O)c3C3CC3)c2)C1 (racemic)

Biological target: T1, Keap1/Nrf2
Experiment: as §1
Settings: not given
Target sequence in this assay (Q14145 whole entry, looked up, the tested form may be a part): as above
Target sequence in this assay (Q16236 whole entry, looked up, the tested form may be a part): as the sequence (Q16236 whole entry, looked up, the tested form may be a part) above

IC50 [µM] | Compound
0.56 | CCC[C@@H]1CCCCN1C(=O)c1cccc(-c2cccc(-n3ncc(C(=O)O)c3[C@@H]3C[C@H]3c3cn(C)nn3)c2)c1

Biological target: T1, Keap1/Nrf2
Experiment: Inhibition of 5'-TAMRA tagged NRF2 (unknown origin)/human recombinant N-terminal Avi tagged KEAP-1 (321 to 609 residues) expressed in Baculovirus system infected in Sf9 cells protein-protein interaction at 0.1 uM by fluorescence polarisation assay relative to control
Settings: not given
Target sequence in this assay (Q14145 whole entry, looked up, the tested form may be a part): as the sequence (Q14145 whole entry, looked up, the tested form may be a part) above
Target sequence in this assay (Q16236 whole entry, looked up, the tested form may be a part): as the sequence (Q16236 whole entry, looked up, the tested form may be a part) above

inhibition [%] | Compound
50 | CN(CC1CC1)C(=O)c1cccc(-c2cccc(-n3ncc(C(=O)O)c3C3CC3)c2)c1F

Biological target: T1, Keap1/Nrf2
Experiment: Inhibition of 5'-TAMRA tagged NRF2 (unknown origin)/human recombinant N-terminal Avi tagged KEAP-1 (321 to 609 residues) expressed in Baculovirus system infected in Sf9 cells protein-protein interaction at 0.05 uM by fluorescence polarisation assay relative to control
Settings: not given
Target sequence in this assay (Q14145 whole entry, looked up, the tested form may be a part): as the sequence (Q14145 whole entry, looked up, the tested form may be a part) above
Target sequence in this assay (Q16236 whole entry, looked up, the tested form may be a part): as the sequence (Q16236 whole entry, looked up, the tested form may be a part) above

inhibition [%] | Compound
72 | CCCC1COCCN1C(=O)c1cccc(-c2cccc(-n3ncc(C(=O)O)c3C3CC3)c2)c1F (stereo not given)

Tested on: not listed separately
Experiment: Lipophilicity, logD of compound at pH 2 to 10.5 by reversed-phase HPLC
Assay type: physicochemical
Settings: not given

Compound | chromatographic logD
CCCC1CCCCN1C(=O)c1cccc(-c2cccc(-n3ncc(C(=O)O)c3C3CC3c3cn(C)nn3)c2)c1 (mixture of isomers) | 2.9
CCCC1CCCCN1C(=O)c1cccc(-c2cccc(-n3ncc(C(=O)O)c3C3CC3c3ccccn3)c2)c1 (mixture of isomers) | 3.1
CCC[C@@H]1CCCCN1C(=O)c1cccc(-c2cccc(-n3ncc(C(=O)O)c3[C@H]3C[C@@H]3c3cn(C)nn3)c2)c1 | 3
CN(C)C(=O)c1cccc(-c2cccc(-n3ncc(C(=O)O)c3C3CC3c3cn(C)nn3)c2)c1 (racemic) | 0.8
CCCC1COCCN1C(=O)c1cccc(-c2cccc(-n3ncc(C(=O)O)c3C3CC3)c2)c1F (stereo not given) | 2.5
CCCC1CCCCN1C(=O)c1cccc(-c2cccc(-n3ncc(C(=O)O)c3C3CC3c3cccnc3)c2)c1 (mixture of isomers) | 3.9
O=C(O)c1cnn(-c2cccc(-c3cccc(C(=O)N4CCCC5(CCCC5)C4)c3F)c2)c1C1CC1 | 3.7
CCCC1CCCCN1C(=O)c1cccc(-c2cccc(-n3ncc(C(=O)O)c3C3CC3c3cccnn3)c2)c1 (mixture of isomers) | 2.9
CCC[C@@H]1CCCCN1C(=O)c1cccc(-c2cccc(-n3ncc(C(=O)O)c3[C@@H]3C[C@H]3c3cn(C)nn3)c2)c1 | 3
O=C(O)c1cnn(-c2cccc(-c3cccc(C(=O)N4CCCCC4)c3F)c2)c1C1CC1 | 2.3

More lines, now with the values ahead:

chromatographic logD | Compound
3.5 | CCC[C@H]1CCCCN1C(=O)c1cccc(-c2cccc(-n3ncc(C(=O)O)c3C3CC3)c2)c1F
3.5 | O=C(O)c1cnn(-c2cccc(-c3cccc(C(=O)N(CC4CC4)CC4CC4)c3F)c2)c1C1CC1
2.2 | CN(CC1CC1)C(=O)c1cccc(-c2cccc(-n3ncc(C(=O)O)c3C3CC3)c2)c1F
1.3 | CN(C)C(=O)c1cccc(-c2cccc(-n3ncc(C(=O)O)c3C3CC3)c2)c1F
4.3 | CCCC[C@@H]1CCCN1C(=O)[C@H]1CCC[C@@H](c2cccc(-n3ncc(C(=O)O)c3C3CC3)c2)C1
1.4 | CN(C)C(=O)c1cccc(-c2cccc(-n3ncc(C(=O)O)c3C3CC3)c2)c1
4.1 | CCCC1CCCCN1C(=O)C1CCCC(c2cccc(-n3ncc(C(=O)O)c3C3CC3)c2)C1 (mixture of isomers)
4.4 | CCCCC1CCCN1C(=O)C1CCCC(c2cccc(-n3ncc(C(=O)O)c3C3CC3)c2)C1 (mixture of isomers)
3.5 | CCC[C@@H]1CCCCN1C(=O)c1cccc(-c2cccc(-n3ncc(C(=O)O)c3C3CC3)c2)c1F
1.7 | CN(C)C(=O)[C@H]1CCC[C@@H](c2cccc(-n3ncc(C(=O)O)c3C3CC3)c2)C1 (racemic)
2.7 | O=C(O)c1cnn(-c2cccc([C@@H]3CCC[C@H](C(=O)N4CCCCC4)C3)c2)c1C1CC1 (racemic)
